Results published in patent US10059655B2, “Lipids and lipid compositions for the delivery of active agents” (priority 2013, dated 2018).

Assays:
[1] = Measurement of siRNA encapsulation (SYBR Gold fluorescence); format: physicochemical; conditions: FVII siRNA in LNP
Protocol: The lipid nanoparticles (LNPs) were formed by mixing equal volumes of lipids dissolved in alcohol with siRNA dissolved in a citrate buffer by an impinging jet process. The lipid solution contains a cationic lipid compound of the invention, a helper lipid (cholesterol), an optional neutral lipid (DSPC) and a stealth lipid (S010, S024, S027, or S031) at a concentration of 8-16 mg/mL with a target of 12 mg/mL in an alcohol. The siRNA to total lipid ratio is approximately 0.05 (wt/wt). Where a LNP formulation contains four lipid components, the molar ratios of the lipids ranges from 20 to 70 mole percent for the cationic lipid with a target of 40-60, the mole percent of helper lipid ranges from 20 to 70 with a target of 30 to 50, the mole percent of neutral lipid ranges from 0-30, the mole percent of PEG lipid has a range from 1 to 6 with a target of 2 to 5. The concentration of siRNA solution ranges from 0.7 to 1.0 mg/mL with a target of 0.8 to 0.9 mg/mL in a sodium citrate: sodium chloride buffer pH 4-6, with a target of 4.5-5.5. The LNPs are formed by mixing equal volumes of lipid solution in ethanol with siRNA dissolved in a citrate buffer by an impinging jet process through a mixing device with ID ranging from 0.25 to 2.0 mm at a flow rate from 10 to 640 mL/min. The mixed LNP solution is held at room temperature for 0-24 hrs prior to a dilution step. The solution is then concentrated and diafiltered with suitable buffer by ultrafiltration process using membranes with a MW cutoff from 30 to 500 KD. The final product is sterile filtered and stored at 4° C.
SYBR Gold flourescence reagent is used for the determination of siRNA encapsulation in the DLP's. DLP's with and without triton x-100 are used to determine the free siRNA and total siRNA amounts. DLP's samples with and without triton X-100 were excited at 485 nm and flourescence emission is measured at 530 nm. Encapsulation efficiency is calculated based on the following formula: Encapsulation efficiency: [(free siRNA concentration−total siRNA concentration)/(total siRNA concentration)]×100% Encapsulation Data

[2] = Measurement of mRNA encapsulation in lipid nanoparticles (Quant-iT Ribogreen); format: physicochemical; conditions: Leptin mRNA in LNP
Procedure, shortened: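 LNPs were formed by T-junction mixing of ethanolic lipids (cationic lipid:DSPC:cholesterol:PEG lipid 40:10:38:2) with mRNA in citrate pH 5.8–6.0 at N:P 4:1, then dialysed against PBS overnight at 4 °C. RiboGreen fluorescence (ex 480/em 520 nm) was read on samples diluted 400–2,000-fold in TE with or without 0.75% Triton X-100 and quantified against standard curves. Encapsulation % = (Triton − buffer concentration)/Triton concentration.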

Row | % encapsulation siRNA FVII [1] | % encapsulation mRNA Leptin [2] | Structure (SMILES)
1 | 86.7% | – | CCCCC/C=C\C/C=C\CCCCCCCC(=O)OCC(COC(=O)CCCCCCC/C=C\C/C=C\CCCCC)COC(=O)C1CCN(CC2CC2)CC1 [Example 9, (9Z,9′Z,12Z,12′Z)-2-(((1-(cyclopropylmethyl)piperidine-4-carbonyl)oxy)methyl)propane-1,3-diyl bis(octadeca-9,12-dienoate)]
2 | 86.1% | – | CCCCC/C=C\C/C=C\CCCCCCCC(=O)OCC(COC(=O)CC(CCCCCCCC)CCCCCCCC)COC(=O)OCCCN(CC)CC (centres unmarked) [Example 22, (9Z,12Z)-3-(((3-(diethylamino)propoxy)carbonyl)oxy)-2-(((3-octylundecanoyl)oxy)methyl)propyl octadeca-9,12-dienoate]
3 | 89.1% | 86.6% | CCCCC/C=C\C/C=C\CCCCCCCC(=O)OCC(COC(=O)CCCCCCCC(CCCCC)CCCCC)COC(=O)OCCCN(CC)CC (centres unmarked) [Example 24, (9Z,12Z)-3-(((3-(diethylamino)propoxy)carbonyl)oxy)-2-(((9-pentyltetradecanoyl)oxy)methyl)propyl octadeca-9,12-dienoate]
4 | 88.7% | 95.3% | CCCCC/C=C\C/C=C\CCCCCCCC(=O)OCC(COC(=O)CCCC(CCCCCCC)CCCCCCC)COC(=O)OCCCN(CC)CC (centres unmarked) [Example 25, (9Z,12Z)-3-(((3-(diethylamino)propoxy)carbonyl)oxy)-2-(((5-heptyldodecanoyl)oxy)methyl)propyl octadeca-9,12-dienoate]

Row | Structure (SMILES) | % encapsulation siRNA FVII [1] | % encapsulation mRNA Leptin [2]
5 | CCCCC/C=C\C/C=C\CCCCCCCC(=O)OCC(COC(=O)OCCN(C)C)COC(=O)C(OCCCCCCC)OCCCCCCC (centres unmarked) [Example 26, (9Z,12Z)-3-(2,2-bis(heptyloxy)acetoxy)-2-((((2-(dimethylamino)ethoxy)carbonyl)oxy)methyl)propyl octadeca-9,12-dienoate] | 80.0% | 96.9%
